{"source": "ChEMBL document CHEMBL5550173", "about": "“Design, synthesis and biological evaluation of indoline-maleimide conjugates as potential antitumor agents for the treatment of colorectal cancer” (Bioorg Med Chem, 2024)", "key": {"[1]": {"system": "RKO", "test": "Effect on cyclin D1 expression in human RKO cells at 2.5 to 10 uM incubated for 48 hrs by Western blotting analysis", "assay_type": "functional, cell-based", "details": "dose 2.5-10 µM"}, "[2]": {"system": "RKO", "test": "Induction of apoptosis in human RKO cells assessed as viable cells at 5 uM incubated for 48 hrs by Annexin V-PE and propidium iodide staining based flow cytometry analysis (reference value: 99.2%)", "assay_type": "functional", "details": "read-out: Activity"}, "[3]": {"system": "RKO", "test": "Inhibition of colony formation in human RKO cells at 4 uM incubated for 10 days with every 3 days of media replacement by crystal violet staining based assay", "assay_type": "functional", "details": "240 h, time 10 day"}, "[4]": {"test": "Acute toxicity in BALB/c mouse assessed as spleen lesion at 50 to 100 mg/kg, ip measured every 2 days by H and E staining based assay", "assay_type": "organism-based", "details": "in vivo, 48 h, dose 50-100 mg/kg"}, "[5]": {"system": "HCT-116", "test": "Induction of apoptosis in human HCT-116 cells assessed as early apoptotic cells at 2.5 uM incubated for 48 hrs by Annexin V-PE and propidium iodide staining based flow cytometry analysis (reference value: 0.4%)", "assay_type": "functional"}, "[6]": {"system": "HCT-116", "test": "Induction of apoptosis in human HCT-116 cells assessed as viable cells at 5 uM incubated for 48 hrs by Annexin V-PE and propidium iodide staining based flow cytometry analysis (reference value: 97.8%)", "assay_type": "functional", "details": "read-out: Activity"}, "[7]": {"system": "RKO", "test": "Induction of apoptosis in human RKO cells assessed as necrotic cells at 2.5 uM incubated for 48 hrs by Annexin V-PE and propidium iodide staining based flow cytometry analysis (reference value: 0.3%)", "assay_type": "functional"}, "[8]": {"target": "Serine/threonine-protein kinase AKT (Homo sapiens) (UniProt P31751+Q9Y243+P31749)", "sequence (P31749 whole entry, looked up)": "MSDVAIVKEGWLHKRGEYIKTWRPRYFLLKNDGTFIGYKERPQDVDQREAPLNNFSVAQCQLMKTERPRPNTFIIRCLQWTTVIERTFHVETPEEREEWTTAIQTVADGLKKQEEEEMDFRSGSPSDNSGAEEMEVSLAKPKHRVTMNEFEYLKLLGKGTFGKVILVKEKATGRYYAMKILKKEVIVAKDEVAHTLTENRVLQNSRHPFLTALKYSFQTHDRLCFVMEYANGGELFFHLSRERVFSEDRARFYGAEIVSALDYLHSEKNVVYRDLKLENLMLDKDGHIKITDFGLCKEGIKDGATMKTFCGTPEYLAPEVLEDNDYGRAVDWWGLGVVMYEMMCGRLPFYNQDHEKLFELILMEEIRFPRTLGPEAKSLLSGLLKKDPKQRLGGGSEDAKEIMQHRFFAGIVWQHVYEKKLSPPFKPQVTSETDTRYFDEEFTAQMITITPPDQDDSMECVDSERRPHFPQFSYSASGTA", "sequence (P31751 whole entry, looked up)": "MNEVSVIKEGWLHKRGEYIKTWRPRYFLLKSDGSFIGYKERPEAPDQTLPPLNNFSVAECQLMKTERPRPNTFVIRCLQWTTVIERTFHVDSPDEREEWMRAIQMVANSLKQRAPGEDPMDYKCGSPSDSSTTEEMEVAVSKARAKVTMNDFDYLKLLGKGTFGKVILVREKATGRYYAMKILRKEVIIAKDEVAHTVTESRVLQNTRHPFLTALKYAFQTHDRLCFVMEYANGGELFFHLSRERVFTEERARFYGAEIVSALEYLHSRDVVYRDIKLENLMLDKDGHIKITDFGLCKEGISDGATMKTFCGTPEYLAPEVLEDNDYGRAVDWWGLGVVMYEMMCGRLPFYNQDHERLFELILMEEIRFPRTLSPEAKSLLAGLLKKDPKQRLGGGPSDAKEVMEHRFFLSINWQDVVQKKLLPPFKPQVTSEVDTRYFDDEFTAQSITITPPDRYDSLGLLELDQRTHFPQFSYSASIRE", "sequence (Q9Y243 whole entry, looked up)": "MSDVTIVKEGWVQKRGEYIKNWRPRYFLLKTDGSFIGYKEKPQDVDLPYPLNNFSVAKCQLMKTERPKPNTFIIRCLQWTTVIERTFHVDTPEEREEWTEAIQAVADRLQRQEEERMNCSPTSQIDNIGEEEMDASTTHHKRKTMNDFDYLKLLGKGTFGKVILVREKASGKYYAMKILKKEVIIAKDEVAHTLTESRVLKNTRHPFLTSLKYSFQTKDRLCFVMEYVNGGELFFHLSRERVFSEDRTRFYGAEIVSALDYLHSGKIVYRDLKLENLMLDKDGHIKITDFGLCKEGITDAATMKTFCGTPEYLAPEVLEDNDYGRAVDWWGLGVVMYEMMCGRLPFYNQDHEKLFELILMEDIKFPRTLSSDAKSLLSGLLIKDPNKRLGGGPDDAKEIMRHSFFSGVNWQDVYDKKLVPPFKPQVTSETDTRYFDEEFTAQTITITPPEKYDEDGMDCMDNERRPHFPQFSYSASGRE", "test": "Inhibition of AKT phosphorylation in human HCT-116 cells by incubated for 48 hrs Western blotting analysis", "assay_type": "cell-based", "details": "dose 2.5-10 µM"}, "[9]": {"system": "RKO", "test": "Induction of apoptosis in human RKO cells assessed as necrotic cells at 10 uM incubated for 48 hrs by Annexin V-PE and propidium iodide staining based flow cytometry analysis (reference value: 0.3%)", "assay_type": "functional"}, "[10]": {"system": "RKO", "test": "Effect on CDK2 expression in human RKO cells at 2.5 to 10 uM incubated for 48 hrs by Western blotting analysis", "assay_type": "functional, cell-based", "details": "dose 2.5-10 µM"}, "[11]": {"system": "HCT-116", "test": "Induction of apoptosis in human HCT-116 cells assessed as late apoptotic cells at 2.5 uM incubated for 48 hrs by Annexin V-PE and propidium iodide staining based flow cytometry analysis (reference value: 0.5%)", "assay_type": "functional"}, "[12]": {"system": "HCT-116", "test": "Induction of apoptosis in human HCT-116 cells assessed as early apoptotic cells at 10 uM incubated for 48 hrs by Annexin V-PE and propidium iodide staining based flow cytometry analysis (reference value: 0.4%)", "assay_type": "functional"}, "[13]": {"system": "HCT-116", "test": "Antitumor activity against human HCT-116 cells xenografted in BALB/c mouse assessed as tumor growth suppression at 5 to 10 mg/kg, ip measured every 2 days by H and E staining based assay", "assay_type": "functional, organism-based", "details": "dose 5-10 mg/kg"}, "[14]": {"system": "RKO", "test": "Induction of apoptosis in human RKO cells assessed as early apoptotic cells at 2.5 uM incubated for 48 hrs by Annexin V-PE and propidium iodide staining based flow cytometry analysis (reference value: 0.2%)", "assay_type": "functional"}, "[15]": {"system": "HCT-116", "test": "Cytotoxicity against human HCT-116 cells at 5 uM incubated for 72 hrs by MTS assay", "assay_type": "functional"}, "[16]": {"system": "RKO", "test": "Induction of apoptosis in human RKO cells assessed as early apoptotic cells at 10 uM incubated for 48 hrs by Annexin V-PE and propidium iodide staining based flow cytometry analysis (reference value: 0.2%)", "assay_type": "functional"}, "[17]": {"system": "RKO", "test": "Cytotoxicity against human RKO cells incubated for 72 hrs by MTS assay", "assay_type": "functional, cell-based"}, "[18]": {"system": "HCT-116", "test": "Inhibition of cell migration in human HCT-116 cells at 2.5 to 10 uM measured upto 48 hrs by scratch wound healing assay", "assay_type": "functional, cell-based", "details": "dose 2.5-10 µM"}, "[19]": {"system": "HT-29", "test": "Cytotoxicity against human HT-29 cells incubated for 72 hrs by MTS assay", "assay_type": "functional, cell-based", "details": "HT-29, 72 h"}, "[20]": {"system": "HCT-116", "test": "Effect on cyclin D1 expression in human HCT-116 cells at 2.5 to 10 uM incubated for 48 hrs by Western blotting analysis", "assay_type": "functional, cell-based", "details": "dose 2.5-10 µM"}, "[21]": {"test": "Acute toxicity in BALB/c mouse assessed as lung lesion at 50 to 100 mg/kg, ip measured every 2 days by H and E staining based assay", "assay_type": "organism-based", "details": "in vivo, 48 h, dose 50-100 mg/kg"}, "[22]": {"system": "RKO", "test": "Inhibition of cell migration in human RKO cells at 2.5 to 10 uM measured upto 48 hrs by scratch wound healing assay", "assay_type": "functional, cell-based", "details": "dose 2.5-10 µM"}, "[23]": {"system": "HCT-116", "test": "Induction of apoptosis in human HCT-116 cells assessed as viable cells at 2.5 uM incubated for 48 hrs by Annexin V-PE and propidium iodide staining based flow cytometry analysis (reference value: 97.8%)", "assay_type": "functional", "details": "read-out: Activity"}, "[24]": {"system": "RKO", "test": "Induction of apoptosis in human RKO cells assessed as late apoptotic cells at 2.5 uM incubated for 48 hrs by Annexin V-PE and propidium iodide staining based flow cytometry analysis (reference value: 0.3%)", "assay_type": "functional"}, "[25]": {"system": "HCT-116", "test": "Induction of cell cycle arrest in human HCT-116 cells assessed as upregulation of p21 expression at 2.5 to 10 uM incubated for 48 hrs by Western blotting analysis", "assay_type": "functional, cell-based", "details": "dose 2.5-10 µM"}, "[26]": {"system": "HCT-116", "test": "Induction of cell cycle arrest in human HCT-116 cells assessed as upregulation of p53 expression at 2.5 to 10 uM incubated for 48 hrs by Western blotting analysis", "assay_type": "functional, cell-based", "details": "dose 2.5-10 µM"}, "[27]": {"system": "HCT-116", "test": "Inhibition of colony formation in human HCT-116 cells incubated for 10 days with every 3 days of media replacement by crystal violet staining based assay", "assay_type": "functional, cell-based", "details": "dose 1-4 µM, time 10.0 day"}, "[28]": {"system": "HCT-116", "test": "Induction of apoptosis in human HCT-116 cells assessed as necrotic cells at 2.5 uM incubated for 48 hrs by Annexin V-PE and propidium iodide staining based flow cytometry analysis (reference value: 1.3%)", "assay_type": "functional"}, "[29]": {"test": "Acute toxicity in BALB/c mouse assessed as kidney lesion at 50 to 100 mg/kg, ip measured every 2 days by H and E staining based assay", "assay_type": "organism-based", "details": "in vivo, 48 h, dose 50-100 mg/kg"}, "[30]": {"target": "Glycogen synthase kinase-3 beta (Homo sapiens) (UniProt P49841)", "sequence (P49841 whole entry, looked up)": "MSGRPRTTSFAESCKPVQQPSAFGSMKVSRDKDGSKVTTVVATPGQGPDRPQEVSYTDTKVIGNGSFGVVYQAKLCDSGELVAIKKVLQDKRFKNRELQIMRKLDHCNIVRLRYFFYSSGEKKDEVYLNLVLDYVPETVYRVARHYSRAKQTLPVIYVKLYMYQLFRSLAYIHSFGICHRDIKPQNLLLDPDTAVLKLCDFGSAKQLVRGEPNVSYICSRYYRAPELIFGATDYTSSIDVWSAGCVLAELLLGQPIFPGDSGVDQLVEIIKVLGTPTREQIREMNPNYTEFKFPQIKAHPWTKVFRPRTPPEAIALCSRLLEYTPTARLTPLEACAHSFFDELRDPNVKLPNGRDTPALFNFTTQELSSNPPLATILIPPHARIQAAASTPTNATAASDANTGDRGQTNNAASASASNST", "test": "Inhibition of GSK-3beta phosphorylation in human HCT-116 cells by incubated for 48 hrs Western blotting analysis", "assay_type": "cell-based", "details": "dose 2.5-10 µM"}, "[31]": {"system": "HCT-116", "test": "Effect on GSK-3beta level in human HCT-116 cells at 2.5 to 10 uM incubated for 48 hrs by Western blotting analysis", "assay_type": "functional, cell-based", "details": "dose 2.5-10 µM"}, "[32]": {"system": "RKO", "test": "Induction of apoptosis in human RKO cells assessed as necrotic cells at 5 uM incubated for 48 hrs by Annexin V-PE and propidium iodide staining based flow cytometry analysis (reference value: 0.3%)", "assay_type": "functional"}, "[33]": {"system": "HCT-116", "test": "Induction of apoptosis in human HCT-116 cells assessed as necrotic cells at 5 uM incubated for 48 hrs by Annexin V-PE and propidium iodide staining based flow cytometry analysis (reference value: 1.3%)", "assay_type": "functional"}, "[34]": {"system": "RKO", "test": "Induction of apoptosis in human RKO cells assessed as viable cells at 10 uM incubated for 48 hrs by Annexin V-PE and propidium iodide staining based flow cytometry analysis (reference value: 99.2%)", "assay_type": "functional", "details": "read-out: Activity"}, "[35]": {"test": "Acute toxicity in BALB/c mouse assessed as appearance of abnormal behavior at 50 to 100 mg/kg, ip measured every 2 days", "assay_type": "organism-based", "details": "in vivo, 48 h, dose 50-100 mg/kg"}, "[36]": {"system": "HCT-116", "test": "Induction of cell cycle arrest in human HCT-116 cells assessed as downregulation of CDK4 expression at 2.5 to 10 uM incubated for 48 hrs by Western blotting analysis", "assay_type": "functional, cell-based", "details": "dose 2.5-10 µM"}, "[37]": {"test": "Toxicity in BALB/c nude mouse assessed as changes in body weight at 5 to 10 mg/kg, ip administered every 2 days", "assay_type": "organism-based", "details": "in vivo, 48 h, dose 5-10 mg/kg"}}, "note": "Active and inactive are the calls of the source. The calls are words filed in the database; no cut-off is given here.", "data": [{"compound": "C=C(C)C(=O)N1CCc2cccc(C3=CC(=O)N(C)C3=O)c21", "values": [{"measurement": "Activity", "setting": "[1]", "value": "inactive"}, {"measurement": "viability at 5 µM", "setting": "[2]", "value": 98, "unit": "%"}, {"measurement": "inhibition at 4 µM", "setting": "[3]", "value": 100, "unit": "%"}, {"measurement": "Activity", "setting": "[4]", "value": "Non-Toxic"}, {"measurement": "Activity", "setting": "[5]", "value": 0.7, "unit": "%"}, {"measurement": "viability at 5 µM", "setting": "[6]", "value": 93.6, "unit": "%"}, {"measurement": "Activity", "setting": "[7]", "value": 0.1, "unit": "%"}, {"measurement": "inhibition", "setting": "[8]", "value": "Dose-Dependent Effect"}, {"measurement": "Activity", "setting": "[9]", "value": 0.7, "unit": "%"}, {"measurement": "Activity", "setting": "[10]", "value": "inactive"}, {"measurement": "Activity", "setting": "[11]", "value": 1, "unit": "%"}, {"measurement": "Activity", "setting": "[12]", "value": 5, "unit": "%"}, {"measurement": "Activity", "setting": "[13]", "value": "Active"}, {"measurement": "Activity", "setting": "[14]", "value": 0.5, "unit": "%"}, {"measurement": "Activity", "setting": "[15]", "value": 98.06, "unit": "%"}, {"measurement": "Activity", "setting": "[16]", "value": 4.9, "unit": "%"}, {"measurement": "IC50", "setting": "[17]", "value": 1100, "unit": "nM"}, {"measurement": "inhibition", "setting": "[18]", "value": "Active"}, {"measurement": "IC50", "setting": "[19]", "value": 1730, "unit": "nM"}, {"measurement": "Activity", "setting": "[20]", "value": "inactive"}, {"measurement": "Activity", "setting": "[21]", "value": "Non-Toxic"}, {"measurement": "inhibition", "setting": "[22]", "value": "Active"}, {"measurement": "viability at 2.5 µM", "setting": "[23]", "value": 96.5, "unit": "%"}, {"measurement": "Activity", "setting": "[24]", "value": 0.4, "unit": "%"}, {"measurement": "Activity", "setting": "[25]", "value": "Active"}, {"measurement": "Activity", "setting": "[26]", "value": "Active"}, {"measurement": "inhibition", "setting": "[27]", "value": "Dose-Dependent Effect"}, {"measurement": "Activity", "setting": "[28]", "value": 1.8, "unit": "%"}, {"measurement": "Activity", "setting": "[29]", "value": "Non-Toxic"}, {"measurement": "inhibition", "setting": "[30]", "value": "Dose-Dependent Effect"}, {"measurement": "Activity", "setting": "[31]", "value": "inactive"}, {"measurement": "Activity", "setting": "[32]", "value": 0, "unit": "%"}, {"measurement": "Activity", "setting": "[33]", "value": 3.2, "unit": "%"}, {"measurement": "viability at 10 µM", "setting": "[34]", "value": 93.4, "unit": "%"}, {"measurement": "Activity", "setting": "[35]", "value": "Non-Toxic"}, {"measurement": "Activity", "setting": "[36]", "value": "Active"}, {"measurement": "Activity", "setting": "[37]", "value": "Non-Toxic"}]}]}
